Data on one molecule can be found in US11980607B2, “Methods of treating malignant lymphoproliferative disorders” (Actuate Therapeutics Inc., priority 2018, dated 2024).

Bounds are passed on as bounds.

Data set [1] concerns TCL and MCL lines. Briefly: Apoptosis assay in TCL and MCL lines. To be noted: low doses, 48 hours. Type of data set: cell-based, human. How it is done:
Unstimulated peripheral blood B- and T-lymphocytes isolated from a healthy donor were used as normal control. Pro-apoptotic effect of the GSK3 inhibitor 9-ING-41 in various MCL and TCL lines (A) and DLBCL lines (B). (C) Cell proliferation profile of various lymphoma cell lines upon treatment with 9-ING-41. Results (A-C) are from 3 independent experiments.
(§1) Cells were seeded at 5×10^5 cells/well in 24 well plates, and incubated with 9-ING-41 at indicated concentrations for 48 hours. The cells were then stained with FITC conjugated Annexin V (Life Technologies) and Propidium Iodide followed by analysis on a BD FACS Calibur flow cytometer.
(§2) Given that both GSK3α and GSK3β are overexpressed in lymphoma cells, and that both enzymes are implicated in multiple signaling pathways critical for cell functions, whether GSK3α and GSK3β are functionally supporting the survival and proliferation of lymphoma cells was examined. […] The inhibitory concentrations of 9-ING-41 at half of the maximal effect (IC50) on cell survival of various lymphoma cell lines was calculated (Table 1).

The test system of data set [2] is OCI-LY19. Kind of data set: Apoptosis assay (Annexin V/PI), cell survival. Type of data set: cell-based. To be noted: Homo sapiens; OCI-LY19 (DLBCL), 48 hours. The protocol: as §1
(§3) The IC50S of 9-ING-41 on cell survival and proliferation was calculated using an on-line IC50 calculation tool (https://www.aatbio.com/tools/ic50-calculator/).
as §2

For data set [3], the system named is Mino. Kind of data set: Apoptosis assay (Annexin V/PI), cell survival. Type of data set: cell-based. The following applies: Homo sapiens; Mino (MCL), 48 hours. How it is done: as §1, §3, §2
Data set [4] deals with SeAx. Briefly: Apoptosis assay (Annexin V/PI), cell survival. Type of data set: cell-based. To be noted: Homo sapiens; SeAx (TCL), 48 hours. The protocol:
as §1, §3, §2

In data set [5] the test system is MyLa. Briefly: Apoptosis assay (Annexin V/PI), cell survival. The following applies: Homo sapiens; MyLa (TCL), 48 hours. Type of data set: cell-based. The protocol:
as §1, §3, §2

Data set [6] deals with Karpas-299. Kind of data set: Apoptosis assay (Annexin V/PI), cell survival. The format is cell-based. To be noted: Homo sapiens; Karpas-299 (TCL), 48 hours. How it is done:
as §1, §3, §2

For data set [7], the system named is OCI-LY1. Briefly: Apoptosis assay (Annexin V/PI), cell survival. The format is cell-based. To be noted: Homo sapiens; OCI-LY1 (DLBCL), 48 hours. How it is done: as §1, §3, §2
Data set [8] concerns Granta-519. Briefly: Apoptosis assay (Annexin V/PI), cell survival. Type of data set: cell-based. The following applies: Homo sapiens; Granta-519 (MCL), 48 hours. The protocol:
as §1, §3, §2

Data set [9] has as its system Jeko. Kind of data set: Apoptosis assay (Annexin V/PI), cell survival. The format is cell-based. To be noted: Homo sapiens; Jeko (MCL), 48 hours. How it is done:
as §1, §3, §2

Data set [10] has as its system SU-DHL6. Kind of data set: Apoptosis assay (Annexin V/PI), cell survival. Type of data set: cell-based. The following applies: Homo sapiens, SU-DHL-6; SU-DHL6 (DLBCL), 48 hours. How it is done:
as §1, §3, §2

Data set [11] deals with OCI-Ly3. Briefly: Apoptosis assay (Annexin V/PI), cell survival. To be noted: Homo sapiens; OCI-Ly3 (DLBCL), 48 hours. Type of data set: cell-based. How it is done:
as §1, §3, §2

For data set [12] the following is noted: Xenograft mice, 20 mg/kg intravenous, within 30 minutes; cited from earlier work.
The test system of data set [13] is MyLa. Briefly: Proliferation assay (thymidine uptake). Type of data set: cell-based. To be noted: Homo sapiens; MyLa (TCL), 48 hours then thymidine pulse; read-out: IC50 (μM) on Cell proliferation. The protocol:
Cells were seeded at 1×10^4 cells/well in 96 well plates, and incubated with 9-ING-41 at indicated concentrations for 48 hours followed by pulsing with tritium labeled thymidine for overnight before being analyzed for thymidine uptake.
as §3
9-ING-41 can specifically induce lymphoma cell apoptosis without affecting normal lymphocytes. The thymidine incorporation assay in the presence or absence of 9-ING-41 was performed to test the role of GSK3 in lymphoma cell proliferation. […] The DLBCL lines required slightly higher concentrations. The IC50 of 9-ING-41 on cell proliferation for various lymphoma cell lines was calculated (Table 1).

Data set [14] concerns SUDHL-4, KPUM-UH1, Karpas 22, or TMD8 lymphoma cells. Kind of data set: cells. Type of data set: cell-based. The protocol:
FIGS. 1A-1E show the viability and proliferation of lymphoma cells with 9-ING-41 treatment. 10,000 cells (SUDHL-4 (FIG. 1B), KPUM-UH1 (FIG. 1C), Karpas 422 (FIG. 1D), TMD8 (FIG. 1E)) per 96-well plate well were left untreated or treated with 1 μM 9-ING-41 in triplicate, and the number of cells on days 1, 3, 5 and 7 were calculated using the MTS assay. Briefly, 20 μL of MTS reagent was added to cells and incubated for 2 hours and, the absorbance at 490 nm (A490) was read using a Biotek plate reader. Absorbance at OD=490 nm increases proportionally to cell density. Error bars represent std. deviation between replicates.
Daudi (Burkitt) and SUDHL-4 (germinal center (GC) diffuse large B-cell lymphoma (DLBCL)) cell lines were purchased from […]. (ATCC). KPUM-UH1 (double hit DLBCL) cells were obtained from Junya Kuroda, Kyoto Prefectural University of Medicine, Kyoto, Japan. All cell lines were cultured aseptically and maintained in a water-jacketed incubator (Thermo-Forma) at 37° C. with 5% CO2 and fed with RPMI-1640 (Corning) containing […] glutamine, 10% FBS (Sigma), and antibiotic and antimycotic reagent (Gemini Bioproducts; final concentrations—100 units/mL penicillin G, 100 μg/mL streptomycin sulfate, and 250 ng/mL amphotericin B). Karpas 422 (GC-DLBCL) cells was purchased from Sigma. […] All cell numbers for assays were quantified using a TC20 automated cell counter (BioRad). […]
Cell viability at day 3 and proliferation over the course of 7 days were measured after treating cells with varying concentrations of 9-ING-41 using the Promega CellTiter 96® AQueous One Solution Cell Proliferation Assay reagent (MTS) in accordance with the manufacturer's instructions. […] The absorbance at 490 nm (A490) was determined using a Powerwave XS plate reader (Biotek).
All lymphoma cell lines used in this study express active GSK-3β. SUDHL-4, KPUM-UH1, […], or TMD8 lymphoma cells were plated, and cell numbers on days 1, 3, 5 and 7 were measured using the MTS assay. […]

Take `Cn1cc(C2=C(c3coc4ccc(F)cc34)C(=O)NC2=O)c2cc3c(cc21)OCO3` [9-ING-41, 3-(5-Fluorobenzofuran-3-yl)-4-(5-methyl-5H-[1,3]dioxolo[4,5-f]indol-7-yl)pyrrole-2,5-dione]: in data set [1], the “Apoptosis in TCL and MCL lines” value is listed as “induced apoptosis”. Moreover, the IC50 in [2] was 2.21 µM; in [3], 0.55 µM; in data set [4], 1.6 µM; in data set [5], 0.69 µM; in [6] it was 3.34 µM; in [7], 3.05 µM. Also, the IC50 came to 0.77 µM in [8]; 1.28 µM in data set [9]; 1.58 µM in data set [10]; 3.76 µM in data set [11]; 0.19 µM in data set [13]. In addition, the “9-ING-41 concentration in plasma” value in data set [12] is recorded as “around 8 μM”. Moreover, the “9-ING-41 concentration in the brain” value in data set [12] is reported as “around 40 μM”. Besides, in [14] (1 μM 9-ING-41, day 7, all lymphoma cell lines, p<0.05), the “Proliferation on day 7, relative to control” value is given as “less than 30%”. In addition, the cytotoxicity at 1 µM in data set [14] (72 h, read-out: Reduction of cell viability on day 3) was 40 to 70%. For the same molecule, the “Concentration at which a reduction in viability was seen” value in data set [14] (tested 0.1, 0.5, 1, 5 and 10 μM) was no less than 0.5 µM.
